Results as given in patent US20240350506A1, “PREPARATION OF HISTONE DEACETYLASE INHIBITOR, AND PREPARATION METHOD THEREFOR AND USE THEREOF” (CHENGDU ZENITAR BIOMEDICAL TECHNOLOGY CO., LTD., priority 2021, published 2024).
Structures can show the parent of a compound that is named as a salt. Where two headings read alike, the source gives them in different places.

What was measured:
[1] = Phase solubility of PM in in-situ basic salt-forming agents (arginine, meglumine); type: physicochemical; details: API saturated; for solubility thermodynamic: aqueous with cosolvent or surfactant or cyclodextrin, thermodynamic from solid, read-out: Drug concentration
Protocol: (§1) According to the pH guidance standard for injection, the optimal pH range for injection was 4-9.
(§2) Then, excessive PM raw materials were added and dissolved under ultrasound until saturation. A clear saturated solution was filtered out over a 0.22 μm membrane and transferred into a centrifuge tube. The concentration (mg/mL) and purity (0%) of dissolved PM raw materials were detected by HPLC, and then, whether there was drug precipitation was observed using a clarity detector after being stored in a refrigerator at 4° C. in dark for one day.

[2] = Phase solubility of PM in cyclodextrins (HP-β-CD, SBE-β-CD); type: physicochemical; details: API saturated; for Storing at 4° C. for one day: cell wraps ('sediment')
Protocol: as §1
as §2, with “excess” for “excessive”, “(%)” for “(0%)”

[3] = system: Human multiple myeloma RPMI-8226 cell lines; test: Pharmacodynamic experiment on subcutaneously transplanted tumor, RPMI-8226, in NOD/SCID mice; type: in vivo; details: 10 mg/kg i.v. three times a week; female NOD/SCID mice, day 32
Protocol: Establishment of subcutaneously transplanted tumor model: […] The cells in logarithmic growth phase were selected, and washed three times with PBS buffer under sterile conditions. The single cell suspension was diluted with PBS buffer to 7×10^7 cells/mL for future use. Prior to seeding, 0.1 mL of single cell suspension was taken, and then subcutaneously inoculated into the back of female NOD/SCID mice with a weight of >20 g. Grouping and treatment: When the volume of the tumor reached 100-200 mm^3 or above (the measurement and calculation method of tumor volume (TV): TV (mm^3)=a×b2×π/6, wherein a and b represent the longest diameter and the shortest diameter (mm), respectively), tumor-bearing mice with excessive or insufficient tumor volumes would be eliminated, and qualified animals were randomly divided into groups. […] “B” means Bortezomib; “D” means Dexamethasone; “L” means Lenalidomide. Experimental endpoint and analysis indicators: Example 5 of the present invention was administered 14 times, and the experiment was terminated on the 32nd day after the first treatment. The analysis indicators are: (2) Determination of tumor weight and calculation of tumor inhibition rate (%) When the experiment was terminated, according to the operating procedures of animal experiments, the animals was euthanized and dissected to collect the tumor mass, which was then weighted. The tumor inhibition rate (%) was calculated according to the following formula: [formula] (3) Animal survival and weight changes during the experimental process.

[4] = system: Human Burkitt's lymphoma Daudi cell lines; test: Pharmacodynamic experiment on subcutaneously transplanted tumor, Daudi, in NOD/SCID mice; type: in vivo; details: 10 mg/kg i.v. three times a week (LBH589 dose), female NOD/SCID mice, day 32
Protocol: Establishment of subcutaneously transplanted tumor model: Human Burkitt's lymphoma Daudi cell lines were in vitro cultured in RPMI-1640 medium containing 10% fetal bovine serum, 100 U/mL penicillin, and 100 μg/mL streptomycin. The cells in logarithmic growth phase were selected, and washed three times with PBS buffer under sterile conditions. The single cell suspension was diluted with PBS buffer to 2×10^8 cells/mL for future use. […], 0.1 mL of single cell suspension was taken, and then subcutaneously inoculated into the back of female NOD/SCID mice with a weight of >20 g. Grouping and treatment: When the volume of the tumor reached 100-200 mm^3 or above (the measurement and calculation method of tumor volume (TV): TV (mm^3)=a×b2×π/6, wherein a and b represent the longest diameter and the shortest diameter (mm), respectively), tumor-bearing mice with excessive or insufficient tumor volumes would be eliminated, and qualified animals were randomly divided into groups.
Experimental endpoint and analysis indicators: Example 5 of the present invention was administered 14 times, and the experiment was terminated on the 32nd day after the first treatment. The analysis indicators are:
(2) Determination of tumor weight and calculation of tumor inhibition rate (%)
When the experiment was terminated, the animals was euthanized according to the operating procedures of animal experiments, and dissected to collect the tumor mass, which was then weighted. The tumor inhibition rate (%) was calculated according to the following formula: […]
(3) Animal survival and weight changes during the experimental process.

**Q.** What does the source list for `CN(Cc1nc2c(N3CCOCC3)nc(-c3ccc(N)cc3)nc2n1C)c1ncc(C(=O)NO)cn1` [API, purinostat mesylate]?
**A.** solubility thermodynamic ([1]; 1‰ (M/V) arginine solution in UP water, Arginine 1‰): 50 µg/mL; solubility thermodynamic ([1]; 1‰ (M/V) meglumine solution in UP water, Meglumine 1‰): 130 µg/mL; solubility thermodynamic ([1]; 3‰ (M/V) arginine solution in UP water, Arginine 3‰): 110 µg/mL; solubility thermodynamic ([1]; 3‰ (M/V) meglumine solution in UP water, Meglumine 3‰): 240 µg/mL; solubility thermodynamic ([1]; 5‰ (M/V) arginine solution in UP water, Arginine 5‰): 170 µg/mL; solubility thermodynamic ([1]; 5‰ (M/V) meglumine solution in UP water, Meglumine 5‰): 350 µg/mL; solubility thermodynamic ([1]; 8‰ (M/V) arginine solution in UP water, Arginine 8‰): 280 µg/mL; solubility thermodynamic ([1]; 8‰ (M/V) meglumine solution in UP water, Meglumine 8‰): 460 µg/mL; solubility thermodynamic ([1]; 10‰ (M/V) arginine solution in UP water, Arginine 10‰): 370 µg/mL; solubility thermodynamic ([1]; 10‰ (M/V) meglumine solution in UP water, Meglumine 10‰): 700 µg/mL; Drug purity (%) ([1]; Arginine 1‰): 100%; pH value ([1]; Arginine 1‰): 8.87; Drug purity (%) ([1]; Arginine 3‰): 100%; pH value ([1]; Arginine 3‰): 9.30; Drug purity (%) ([1]; Arginine 5‰): 100%; pH value ([1]; Arginine 5‰): 9.61; Drug purity (%) ([1]; Arginine 8‰): 98.97%; pH value ([1]; Arginine 8‰): 9.76; Drug purity (%) ([1]; Arginine 10‰): 99.24%; pH value ([1]; Arginine 10‰): 9.84; Drug purity (%) ([1]; Meglumine 1‰): 100%; pH value ([1]; Meglumine 1‰): 9.65; Drug purity (%) ([1]; Meglumine 3‰): 99.80%; pH value ([1]; Meglumine 3‰): 9.98; Drug purity (%) ([1]; Meglumine 5‰): 96.55%; pH value ([1]; Meglumine 5‰): 10.22; Drug purity (%) ([1]; Meglumine 8‰): 99.45%; pH value ([1]; Meglumine 8‰): 10.41; Drug purity (%) ([1]; Meglumine 10‰): 99.07%; pH value ([1]; Meglumine 10‰): 10.42; Drug concentration ([2]; HP-β-CD 5% (M/V)): 1850 µg/mL; Drug purity (%) ([2]; HP-β-CD 5% (M/V)): 99.21%; pH values ([2]; HP-β-CD 5% (M/V)): 2.42; Storing at 4° C. for one day ([2]; HP-β-CD 5% (M/V)): Trace; Drug concentration ([2]; HP-β-CD 10% (M/V)): 2020 µg/mL; Drug purity (%) ([2]; HP-β-CD 10% (M/V)): 99.15%; pH values ([2]; HP-β-CD 10% (M/V)): 2.54; Storing at 4° C. for one day ([2]; HP-β-CD 10% (M/V)): Trace; Drug concentration ([2]; HP-β-CD 15% (M/V)): 3160 µg/mL; Drug purity (%) ([2]; HP-β-CD 15% (M/V)): 99.08%; pH values ([2]; HP-β-CD 15% (M/V)): 2.55; Storing at 4° C. for one day ([2]; HP-β-CD 15% (M/V)): Trace; Drug concentration ([2]; HP-β-CD 20% (M/V)): 4130 µg/mL; Drug purity (%) ([2]; HP-β-CD 20% (M/V)): 98.96%; pH values ([2]; HP-β-CD 20% (M/V)): 2.67; Storing at 4° C. for one day ([2]; HP-β-CD 20% (M/V)): Trace; Drug concentration ([2]; HP-β-CD 25% (M/V)): 4520 µg/mL; Drug purity (%) ([2]; HP-β-CD 25% (M/V)): 98.24%; pH values ([2]; HP-β-CD 25% (M/V)): 2.7; Storing at 4° C. for one day ([2]; HP-β-CD 25% (M/V)): Trace; Drug concentration ([2]; SBE-β-CD 5% (M/V)): 930 µg/mL; Drug purity (%) ([2]; SBE-β-CD 5% (M/V)): 99.78%; pH value ([2]; SBE-β-CD 5% (M/V)): 3.77; Storing at 4° C. for one day ([2]; SBE-β-CD 5% (M/V)): Trace; Drug concentration ([2]; SBE-β-CD 10% (M/V)): 1180 µg/mL; Drug purity (%) ([2]; SBE-β-CD 10% (M/V)): 99.01%; pH value ([2]; SBE-β-CD 10% (M/V)): 3.71; Storing at 4° C. for one day ([2]; SBE-β-CD 10% (M/V)): Trace; Drug concentration ([2]; SBE-β-CD 15% (M/V)): 1800 µg/mL; Drug purity (%) ([2]; SBE-β-CD 15% (M/V)): 99.35%; pH value ([2]; SBE-β-CD 15% (M/V)): 3.67; Storing at 4° C. for one day ([2]; SBE-β-CD 15% (M/V)): Trace; Drug concentration ([2]; SBE-β-CD 20% (M/V)): 2220 µg/mL; Drug purity (%) ([2]; SBE-β-CD 20% (M/V)): 99.35%; pH value ([2]; SBE-β-CD 20% (M/V)): 3.64; Storing at 4° C. for one day ([2]; SBE-β-CD 20% (M/V)): Trace; Drug concentration ([2]; SBE-β-CD 25% (M/V)): 2610 µg/mL; Drug purity (%) ([2]; SBE-β-CD 25% (M/V)): 99.17%; pH value ([2]; SBE-β-CD 25% (M/V)): 3.57; Storing at 4° C. for one day ([2]; SBE-β-CD 25% (M/V)): Trace

**Q.** Which “Animal number End/Beginning” value [3] does the source give for `Cc1[nH]c2ccccc2c1CCNCc1ccc(/C=C/C(=O)NO)cc1` [LBH589] here?
**A.** Its value is 6/6.

**Q.** What about the “Tumor inhibition rate (%)” value [3] of the same compound?
**A.** The value was 59.79%.

**Q.** And the “Tumor weight (g) X ± SD” value [3]?
**A.** The value was 0.90 ± 0.37 g.

**Q.** What about the “Animal numbers End/Begining” value [4] of the same compound?
**A.** The value was 7/7.

**Q.** What about the “Tumor inhibition rate (%)” value [4] of the same compound?
**A.** The value was 76.92%.

**Q.** What about the “Weight of tumor mass X ± SD” value ([4]; in g (unit assumed)) of the same compound?
**A.** Its value is 0.83 ± 0.38.
